Experimental data published in patent US20050209157A1, “Short bioactive peptides and methods for their use” (priority 2001, published 2005).
Like-named read-outs stand apart in the source and are kept apart here. No end group written: not given here.

Columns and labels:
[1] = system: Candida albicans ATCC 10231; test: Antimicrobial assay I, modified protocol (tryptic soy broth), MFC; conditions: minimum fungicidal concentration, Table 4
[2] = system: Stapholococcus aureus ATCC 25923; test: Antimicrobial assay I, modified protocol (tryptic soy broth), MBC; conditions: minimum bactericidal concentration, Table 4
[3] = system: Pseudomonas aeruginosa ATCC 27853; test: as above; conditions: minimum bactericidal concentration, Table 4
[4] = system: Escherichia coli ATCC 25922; test: as above; conditions: minimum bactericidal concentration, Table 4
[5] = system: fungal; test: Presently preferred antifungal peptides, selected from the MIC/MBC data; format: cell-based; conditions: X = preferred
From the text: The peptide's “length” is the number of amino acid residues in the sequence.

[6] = system: P. aeruginosa H774; format: cell-based, Pseudomonas aeruginosa; conditions: P. aeruginosa H744; nalidixic acid + peptide at ¼ MIC; 0.5 or less = synergy
Outline: (§1)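 Efflux-mutant strains were tested with two-fold serial dilutions of chloramphenicol or nalidixic acid, alone and with peptide held at ¼ of its own MIC.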

[7] = system: P. aeruginosa H374; format: cell-based, Pseudomonas aeruginosa; conditions: for MIC Cm-comb.: MIC of chloramphenicol with peptide at ¼ MIC; for MIC Nal-comb.: MIC of nalidixic acid with peptide at ¼ MIC; for FIC Index: 0.5 or less = synergy
Outline: as §1

[8] = system: P. aeruginosa; format: cell-based, Pseudomonas aeruginosa; conditions: P. aeruginosa H744; MIC of nalidixic acid with peptide at ¼ MIC
Outline: as §1

[9] = system: P. acne ATCC 6919; test: Antimicrobial assays II, NCCLS broth microdilution MIC; format: cell-based, Propionibacterium acnes; conditions: mean of three, in µg/mL
[10] = system: Staphylococcus aureus ATCC 6538; test: Antimicrobial assay I, MIC by OD measurement; format: cell-based; conditions: 37° C. for 24 hours, absorbance 620 nm
[11] = system: Pseudomonas aeruginosa ATCC 9027; test: Antimicrobial assay I, MIC by OD measurement; format: cell-based; conditions: 37° C. for 24 hours, absorbance 620 nm
[12] = system: S. pyogenes M76; test: Antimicrobial assays II, NCCLS broth microdilution MIC; format: cell-based, Streptococcus pyogenes; conditions: mean of three; 16 to 20 hours at 35° C.
[13] = system: human red blood cells (RBC); test: in vitro; format: cell-based; conditions: hemolytic assay, concentration at 50% hemolysis, 1 hour at 37° C.
[14] = system: S. pneumoniae C719; test: Antimicrobial assays II, NCCLS broth microdilution MIC; format: cell-based, Streptococcus pneumoniae; conditions: mean of three, in µg/mL
[15] = system: WI38; conditions: MTT, 24 hours with peptide; for WI38 LD50: normal fibroblast line
Protocol: (§3) Viability of cells is determined by the dye response. In the following procedure, approximately 1.5×10^4 cells per well were added and viability was determined with the cells in a semi-confluent state. The assay was performed in a 96-well microtiter plate. After addition of peptide, the plate was set for 24 hours. MTT (5 mg/ml in phenol red-free RPMI-1640, 20 μl) was added to each well including positive control wells untreated with peptide. The plate was incubated at 37° C. for 4 hours. The liquid contents of each well was removed, and isopropanol with 0.1 M HCl (100 μl) was added to each well. The plate was sealed with parafilm to prevent evaporation of the isopropanol. The plate is allowed to rest for 5-10 minutes in order to solubilize the precipitate. Purified water (100 μl) was added to each well. Absorbance was determined with an ELISA Reader instrument. Color intensity at 540 nm is proportional to viability of cells.
(§4) WI38 (ATCC No. CCL75) is a normal fibroblast line of lung diploid cells, MCF7 (ATCC No. HTB22) is a breast adenocarcinoma tumor cell line, SW480 (ATCC No. CCL228) is a colon adenocarcinoma tumor cell line, BMKC is a cloned melanoma line derived from Bowes melanoma line HMCB (ATCC No. CRL9607), H1299 (ATCC No. CRL5803) is a lung large cell carcinoma tumor line, HeLaS3 (ATCC No. CCL2.2) is a cervical epitheleal carcinoma tumor cell line, and PC3 (ATCC No. CRL1435) is a prostate adenocarcinoma tumor cell line.

[16] = system: S. pneumoniae C718; test: Antimicrobial assays II, NCCLS broth microdilution MIC; format: cell-based, Streptococcus pneumoniae; conditions: mean of three
[17] = system: S. epidermidis C621; format: cell-based, Staphylococcus epidermidis; conditions: mean of three; 16 to 20 hours at 35° C.
[18] = system: S. pyogenes ATCC19615; test: Antimicrobial assays II, NCCLS broth microdilution MIC; format: cell-based, Streptococcus pyogenes; conditions: mean of three, in µg/mL
[19] = system: S. aureus (MRSA); format: cell-based, Staphylococcus aureus; conditions: mean of three; 16 to 20 hours at 35° C.
[20] = system: H1299; test: Anti-cancer assay, MTT, LD50; format: cell-based; conditions: 24 hours with peptide, lung large cell carcinoma
From the text: (§2) Numbers are LD50 values (μg/mL).

[21] = system: BMKC; test: Anti-cancer assay, MTT, LD50; format: cell-based; conditions: BMKC cloned melanoma line, 24 hours with peptide
From the text: as §2

[22] = system: SW480; test: Anti-cancer assay, MTT, LD50; format: cell-based; conditions: SW480 colon adenocarcinoma line, 24 hours with peptide
From the text: as §2

[23] = system: PC3; test: Anti-cancer assay, MTT, LD50; format: cell-based; conditions: 24 hours with peptide, prostate adenocarcinoma
From the text: as §2

[24] = system: MCF7; test: Anti-cancer assay, MTT, LD50; format: cell-based; conditions: MCF7 breast adenocarcinoma line, MTT, 24 hours with peptide
From the text: as §2

[25] = system: HeLaS3; test: Anti-cancer assay, MTT, LD50; format: cell-based; conditions: 24 hours with peptide, cervical carcinoma
From the text: as §2

[26] = system: yeast (Saccharomyces cerevisiae); test: Antimicrobial assay I, yeast assay in RPMI 1640; format: cell-based; conditions: RPMI 1640 media
[27] = in vitro; format: cell-based, human; conditions: human, human red blood cells
[28] = in vitro; conditions: human, WI38 normal lung fibroblast cells
Protocol: as §3, §4

[29] = system: S. typhimurium 14028S; format: cell-based, Salmonella typhimurium; conditions: mean of three; 16 to 20 hours at 35° C.; in µg/mL
[30] = system: E. coli UB1005; format: cell-based, Escherichia coli; conditions: mean of three; 16 to 20 hours at 35° C.; in µg/mL
[31] = system: P. aeruginosa H374; format: cell-based, Pseudomonas aeruginosa; conditions: mean of three; 16 to 20 hours at 35° C.
[32] = chloramphenicol + peptide at ¼ MIC
[33] = nalidixic acid + peptide at ¼ MIC, FIC=0.25+MIC comb/MIC alone

FAKLLAKLAK-NH2 [compound 123]
MFC Candida A.10231 [1]: 25 µg/mL | MBC S. aur A.25923 [2]: INACT | MBC P. aerug A.27853 [3]: INACT | MBC E. coli A.25922 [4]: 40 µg/mL | Anti-fungal (preferred peptide) [5]: X (Preferred antifungal peptides can be selected as having MIC or MBC values of less than or equal to about 25 μg/ml)

FAKLLALALKKAL-NH2 [compound 97]
MFC Candida A.10231 [1]: 25 µg/mL | MBC S. aur A.25923 [2]: 25 µg/mL | MBC P. aerug A.27853 [3]: >50 µg/mL | MBC E. coli A.25922 [4]: 25 µg/mL | Anti-fungal (preferred peptide) [5]: X (Preferred antifungal peptides can be selected as having MIC or MBC values of less than or equal to about 25 μg/ml)

FAKLLAKALKKAL-NH2 [compound 102]
MFC Candida A.10231 [1]: 15 µg/mL | MBC S. aur A.25923 [2]: 25 µg/mL | MBC P. aerug A.27853 [3]: 30 µg/mL | MBC E. coli A.25922 [4]: 25 µg/mL | Anti-fungal (preferred peptide) [5]: X (Preferred antifungal peptides can be selected as having MIC or MBC values of less than or equal to about 25 μg/ml)

FALKALKKLKKALKKAL-NH2 [compound 153]
MFC Candida A.10231 [1]: 25 µg/mL | MBC S. aur A.25923 [2]: 5 µg/mL | MBC P. aerug A.27853 [3]: 25 µg/mL | MBC E. coli A.25922 [4]: 10 µg/mL | Anti-fungal (preferred peptide) [5]: X (Preferred antifungal peptides can be selected as having MIC or MBC values of less than or equal to about 25 μg/ml)

FALALKAKKL-NH2 [compound 182]
Anti-fungal (preferred peptide) [5]: X (Preferred antifungal peptides can be selected as having MIC or MBC values of less than or equal to about 25 μg/ml)

FAKLLAKALKKL-NH2 [compound 103]
MFC Candida A.10231 [1]: 25 µg/mL | MBC S. aur A.25923 [2]: >50 µg/mL | MBC P. aerug A.27853 [3]: 30 µg/mL | MBC E. coli A.25922 [4]: 30 µg/mL | Anti-fungal (preferred peptide) [5]: X (Preferred antifungal peptides can be selected as having MIC or MBC values of less than or equal to about 25 μg/ml)

CC(C)C[C@H](NC(=O)[C@H](C)NC(=O)[C@H](CCCCN)NC(=O)[C@H](CC(C)C)NC(=O)[C@H](C)NC(=O)[C@H](CC(C)C)NC(=O)[C@H](C)NC(=O)[C@H](CC(C)C)NC(=O)[C@H](CCCCN)NC(=O)[C@H](C)NC(=O)[C@H](CC(C)C)NC(=O)[C@H](CCCCN)NC(=O)[C@H](CCCCN)NC(=O)[C@H](C)NC(=O)[C@H](CC(C)C)NC(=O)[C@H](CCCCN)NC(=O)[C@H](CCCCN)NC(=O)[C@H](CC(C)C)NC(=O)[C@H](CCCCN)NC(=O)[C@H](CCCCN)NC(=O)[C@H](C)NC(=O)[C@H](CC(C)C)NC(=O)[C@H](CCCCN)NC(=O)[C@H](CCCCN)NC(=O)[C@H](C)NC(=O)[C@@H](N)Cc1ccccc1)C(=O)N[C@@H](C)C(=O)N[C@@H](CC(C)C)C(=O)N[C@@H](CCCCN)C(=O)N[C@@H](C)C(=O)O [compound 100]
Anti-fungal (preferred peptide) [5]: X (Preferred antifungal peptides can be selected as having MIC or MBC values of less than or equal to about 25 μg/ml)

FAKKLAKKLAKAL-NH2 [compound 74]
MFC Candida A.10231 [1]: >55 µg/mL | MBC S. aur A.25923 [2]: >55 µg/mL | MBC P. aerug A.27853 [3]: 50 µg/mL | MBC E. coli A.25922 [4]: >55 µg/mL | Anti-fungal (preferred peptide) [5]: X (Preferred antifungal peptides can be selected as having MIC or MBC values of less than or equal to about 25 μg/ml)

FAKLLAKALKKFL-NH2 [compound 118]
MBC P. aerug A.27853 [3]: 25 µg/mL | MBC E. coli A.25922 [4]: 8 µg/mL | Anti-fungal (preferred peptide) [5]: X (Preferred antifungal peptides can be selected as having MIC or MBC values of less than or equal to about 25 μg/ml)

FAKLAKKLL-NH2 [P60]
FIC Index [6]: 1.25 | MIC Cm-comb. [7]: 4 µg/mL | MIC Nal-comb. [7]: 1250 µg/mL | FIC Index [7, 32]: 0.5 | FIC Index [7, 33]: 0.5 | MIC Nal-comb. [8]: 624 µg/mL | P. acne MIC [9]: 4 | staph6538 (MIC) [10]: 200 µg/mL | paerug9027 (MIC) [11]: 100 µg/mL | S. pyogenes M76 MIC [12]: 8 µg/mL | LD50 [13]: > (> indicates greater than 1000) | S. pneumoniae MIC [14]: >128 | WI38 LD50 [15]: > (> indicates greater than 1000) | LD50 WI38 ([15]; WI38 normal lung fibroblast line): > (> indicates greater than 1000) | S. pneumoniae MIC [16]: 128 µg/mL | S. epidermidis C621 MIC [17]: 4 µg/mL | S. pyogenes MIC [18]: 8 | S. aureus (MRSA) MIC [19]: 32 µg/mL | H1299 LD50 [20]: > (> indicates greater than 1000) | LD50 BMKC [21]: > (> indicates greater than 1000) | LD50 SW480 [22]: > (> indicates greater than 1000) | PC3 LD50 [23]: > (> indicates greater than 1000) | LD50 MCF7 [24]: > (> indicates greater than 1000) | HeLaS3 LD50 [25]: > (> indicates greater than 1000) | yeast (MIC or MFC) [26]: 200 µg/mL

FALALKLAKKAL-NH2 [compound 167]
MFC Candida A.10231 [1]: 25 µg/mL | MBC S. aur A.25923 [2]: 10 µg/mL | MBC P. aerug A.27853 [3]: >250 µg/mL | MBC E. coli A.25922 [4]: 25 µg/mL | Anti-fungal (preferred peptide) [5]: X (Preferred antifungal peptides can be selected as having MIC or MBC values of less than or equal to about 25 μg/ml)

KYKKALKKLAKLL-NH2 [compound 146]
MFC Candida A.10231 [1]: 10 µg/mL | MBC S. aur A.25923 [2]: 75 µg/mL | MBC P. aerug A.27853 [3]: >250 µg/mL | MBC E. coli A.25922 [4]: 10 µg/mL | Anti-fungal (preferred peptide) [5]: X (Preferred antifungal peptides can be selected as having MIC or MBC values of less than or equal to about 25 μg/ml)

VALALKALKKLLKKLKKLAKKAL-NH2 [compound 510]
HC50 at 1 h ([27]; pH 7, Table 26, valine substitution, read-out: Hemolysis RBC LD50): 10 µg/mL | CC50 at 24 h ([28]; WI-38 LD50, Table 26, valine substitution): 77 µg/mL | Anti-fungal (preferred peptide) [5]: X (Preferred antifungal peptides can be selected as having MIC or MBC values of less than or equal to about 25 μg/ml)

FAKKLAKKLKKLAKLALAK-NH2 [P41]
FIC Index [6]: 1.25 | MIC Cm-comb. [7]: 16 µg/mL | MIC Nal-comb. [7]: 5000 µg/mL | FIC Index [7, 32]: 1.25 | FIC Index [7, 33]: 1.25 | MIC Nal-comb. [8]: 624 µg/mL | P. acne MIC [9]: 4 | staph6538 (MIC) [10]: 10 µg/mL | paerug9027 (MIC) [11]: 10 µg/mL | S. pyogenes M76 MIC [12]: 8 µg/mL | HC50 at 1 h ([27]; pH 7, hemolytic assay, concentration at 50% hemolysis, 1 hour at 37° C., read-out: LD50): 40 µg/mL | S. pneumoniae MIC [14]: 32 | CC50 at 24 h ([28]; LD50 WI38, WI38 normal lung fibroblast line, MTT, 24 hours with peptide): 175 µg/mL | WI38 LD50 [15]: 175 µg/mL | S. pneumoniae MIC [16]: 64 µg/mL | S. typhimurium 14028S MIC [29]: 4 | S. epidermidis C621 MIC [17]: 4 µg/mL | E. coli UB1005 MIC [30]: 2 | S. pyogenes MIC [18]: 8 | S. aureus (MRSA) MIC [19]: 64 µg/mL | H1299 LD50 [20]: 245 µg/mL | LD50 BMKC [21]: 290 µg/mL | LD50 SW480 [22]: 120 µg/mL | PC3 LD50 [23]: 140 µg/mL | LD50 MCF7 [24]: 98 µg/mL | HeLaS3 LD50 [25]: 185 µg/mL | P. aeruginosa H374 MIC [31]: 4 µg/mL
